Patent US7276337B2, “Compositions and methods for visual ribonuclease detection assays” (Integrated DNA Technologies, Inc., priority 2000, dated 2007)

Assays:
RNase 1 = RNase 1 (Escherichia coli, UniProt P21338); assay: Fluorometric detection nuclease assay, RNase 1; type: biochemical, E. coli; conditions: Substrate 50 nM, 37° C. 1 hour
Experimental: Nuclease assays were conducted using the method of the invention. The Substrate (SEQ ID NO:30) was mixed in 1× Assay Buffer at a concentration of 50 nM (150 pmoles oligonucleotide in 3 mls volume). Test nucleases were added to respective Assay Mixes, including 1 ul of RNase A (1 ug), 1 ul of RNase 1 (100 units), or 1 ul of RNase T1 (1000 units). […] Assays were set up directly in cuvettes as follows:
Assay Mixes were incubated at 37° C. for 1 hour. Assays were transferred to cuvettes and fluorescence emission at 520 nm was measured using a PTI fluorometer with 490 nm excitation. Substrate SEQ ID NO:30, a preferred Substrate of the invention, reacted with (i.e., detected) all three RNase enzymes, verifying that Substrate compositions of the invention are sensitive to a variety of RNase enzymes.
Assays were conducted using the method of the invention with fluorometric detection. Substrate SEQ ID NO:30 was mixed in 1× Assay Buffer at a concentration of 50 nM (50 pmoles ODN in 1.0 ml volume) in RNase-free disposable cuvettes. […] Dilutions of stock RNase A, RNase 1, and RNase T1 were made in water. […] Assays were incubated at 37° C. for 1 hour and examined for fluorescence emission at 520 nm using 490 nm excitation in a PTI fluorometer. […]

[1] = system: RNase A, RNase 1, and RNase T1; assay: Substrate optimization in ribonuclease assays (visual and fluorometric detection); type: biochemical; conditions: 28 Substrate ODNs compared
Experimental: Nuclease assays were conducted using the method of the invention with both visual and fluorometric detection methods. Substrates were individually mixed in 1× Assay Buffer at a concentration of 50 nM (50 pmoles oligonucleotide in 1 ml volume) for fluorometric detection or at a concentration of 500 nM (50 pmoles of oligonucleotide in 100 ul volume) for visual detection. Test nucleases were added to respective Assay Mixes beginning at 1 ul stock reagent and proceeding with a 1:10 serial dilution until undetectable. Reaction mixes were incubated at 37° C. for 60 minutes. Fluorometric detection was performed as outlined in Example 2. Visual detection was performed as outlined in Example 1.
Different Substrates were examined for reactivity with RNase A, RNase 1, and RNase T1. A Substrate composition that contains all 4 ribonucleotide bases in an optimized sequence might be sensitive to most ribonuclease activities and could function as a stand-alone reagent for the Assay. Alternatively, a mix of Substrates could be used (for example, wherein one Substrate contains adenosine, one contains guanosine, one contains uridine, and one contains cytosine residues). Both possibilities were tested. […] Substrates having different base sequence were compared for sensitivity. […] Sequence dependence for RNase T1 was pronounced with cleavage preference being ‘gg’>‘gc’>‘ga’>‘gu’. […]

Ribonuclease A = molecular target: T1, Ribonuclease A (Bos taurus, UniProt P61823); assay: Visual detection ribonuclease assay, cleavage of Substrate ODN by RNase A; type: biochemical, mammalian; parameters: key to Sensitivity of Substrate ODN to Ribonuclease A, relative signal intensity: +++ = maximum intensity; ++ = moderate intensity; + = faint but above background; − = negative (identical to background); conditions: Substrate 500 nM; for Sensitivity of Substrate ODN to Ribonuclease A, relative signal intensity: visual inspection, UV excitation, 37° C. 60 minutes
T1 sequence (P61823 27-150): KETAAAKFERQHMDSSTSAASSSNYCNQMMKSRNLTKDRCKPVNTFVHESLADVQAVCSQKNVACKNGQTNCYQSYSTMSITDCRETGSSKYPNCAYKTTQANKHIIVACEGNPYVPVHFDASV
How it was run: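 Fluorogenic substrate oligonucleotides (500 nM for visual, 50 nM for fluorometric read) cut by serially diluted RNase A, 10 min at room temperature or 60 min at 37° C. Cleavage judged by fluorescence under UV excitation, scored +++ to − by relative intensity.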

Sequence of RNase 1 (P21338 24-268): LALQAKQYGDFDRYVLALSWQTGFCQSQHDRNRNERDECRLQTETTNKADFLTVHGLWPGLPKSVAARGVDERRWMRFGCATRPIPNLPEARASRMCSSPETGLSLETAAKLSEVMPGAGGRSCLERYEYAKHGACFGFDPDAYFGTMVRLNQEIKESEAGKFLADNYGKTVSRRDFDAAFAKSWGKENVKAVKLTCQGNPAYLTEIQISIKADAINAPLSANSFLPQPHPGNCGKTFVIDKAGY

## 5′ Fluorescein-AauggcA-QSY-7 3′ (NAAUGGCAN; 5' fluorescein and 3' QSY-7 labels, nucleotide chemistry not given here) [SEQ ID NO:30]
RNase 1; RNase 1 33 units/ml, emission 520 nm, 490 nm excitation
  Reactivity with RNase 1 (fluorometer): reacted
RNase 1; fluorometric detection, dilution factor 10^−7
  Enzyme Concentration, lowest tested reproducibly positive with signal:noise at least 2:1, RNase 1: 0.00001 units/ml
[1]
  Relative activity / sensitivity among Substrates tested: most active
Ribonuclease A; RNase A 10 pg/ml
  Sensitivity of Substrate ODN to Ribonuclease A, relative signal intensity: ++
Ribonuclease A; RNase A 100 pg/ml
  Sensitivity of Substrate ODN to Ribonuclease A, relative signal intensity: +++
Ribonuclease A; RNase A 1 ng/ml
  Sensitivity of Substrate ODN to Ribonuclease A, relative signal intensity: +++
Ribonuclease A; RNase A 1.0 ug/ml, room temperature 10 minutes, UV light source
  Fluorescence emission by visual inspection in the presence of RNase: visibly bright
Ribonuclease A; final dilution factors of stock 10^−2 to 10^−7, room temperature 10 minutes
  Detection of RNase A activity by visual examination: clearly detectable
Ribonuclease A; no nuclease, room temperature 10 minutes, UV light source
  Fluorescence emission by visual inspection in the absence of RNase (control reaction): visually transparent (dark)
